What was measured:
Experiment in all cases: Antibacterial bioactivity (MIC) of keratinimicins, Table 1
S. aureus MRSA = format: cell-based, Staphylococcus aureus
Procedure: (§1) To determine antibacterial and antiviral performance, assays were performed. In one example, antibacterial assays were carried out by Micromyx, LLC in accordance with methods from the Clinical and Laboratory Standards Institute. Minimal inhibitory concentrations were determined with the following strains: S. aureus ATCC 29213, S. aureus MMX 2011, S. pneumoniae ATCC 49619, S. pyogenes MMX 6253, S. agalactiae MMX 6189, E. faecalis ATCC 29212, E. faecalis MMX 486, B. subtilis ATCC 6633, E. coli ATCC 25922, K. pneumoniae MMX 214, P. aeruginosa ATCC 27853, A. baumannii ATCC 19606, V. cholerae BAA-2163, C. difficile ATCC 700057, and B. fragilis ATCC 25285.
(§2) These compounds are bioactive. In some instances, the compounds show activity against gram-positive bacteria. For example, although they may also show activity against gram-negative targets, the bioactivity of Keratinimicin B and C (FIGS. 21B and 21C) were tested against various gram-positive targets.

S. aureus MSSA = format: cell-based, Staphylococcus aureus
Procedure: as §1, §2

S. pneumoniae = format: cell-based, Streptococcus pneumoniae
Procedure: as §1, §2

S. pyogenes = format: cell-based, Streptococcus pyogenes
Procedure: as §1, §2

S. agalactiae = format: cell-based, Streptococcus agalactiae
Procedure: as §1, §2

E. faecalis VRE = format: cell-based, Enterococcus faecalis
Procedure: as §1, §2

E. faecalis VSE = format: cell-based, Enterococcus faecalis
Procedure: as §1, §2

C. difficile = format: cell-based, Clostridium difficile
Procedure: as §1, §2

## CO[C@H]1[C@H](C)O[C@@H](O[C@@H]2c3ccc(c(Cl)c3)Oc3cc4cc(c3O[C@@H]3O[C@H](CO)[C@@H](O)[C@H](O)[C@H]3O[C@H]3C[C@H](N)[C@@H](O)C(C)O3)Oc3ccc(cc3)[C@@H](O)[C@@H](NC(=O)[C@H](N)c3ccc(O)c(Cl)c3)C(=O)N[C@@H](Cc3ccccc3)C(=O)N[C@H]4C(=O)N[C@H]3C(=O)N[C@@H]2C(=O)N[C@H](C(=O)O)c2cc(O)cc(O)c2-c2cc3ccc2O)C[C@@H]1N (some centres unmarked) [Keratinimicin B]
S. aureus MRSA
  Bioactivity (minimal inhibitory concentration): 4 µg/mL
S. aureus MSSA
  Bioactivity (minimal inhibitory concentration): 8 µg/mL
S. pneumoniae
  Bioactivity (minimal inhibitory concentration): 0.25 µg/mL
S. pyogenes
  Bioactivity (minimal inhibitory concentration): 0.5 µg/mL
S. agalactiae
  Bioactivity (minimal inhibitory concentration): 1 µg/mL
E. faecalis VRE
  Bioactivity (minimal inhibitory concentration): >64 µg/mL
E. faecalis VSE
  Bioactivity (minimal inhibitory concentration): 4 µg/mL
C. difficile
  Bioactivity (minimal inhibitory concentration): 0.5 µg/mL
